From the NIST ThermoML archive (doi:10.1021/je300487n)
± gives the expanded uncertainty stated by the source.

Legend:
[1] = refractive index (Na D-line) (dimensionless); details: 101.33 kPa, Liquid, Standard Abbe refractometry
[2] = for viscosity / mass density: 101.33 kPa, Liquid; for viscosity: Concentric cylinders viscometry; for mass density: Vibrating tube method; for surface tension liquid-gas: Drop volume

CC(=O)O.CCN(C)C [N,N-dimethylethanamine acetate]
Details	mass density, [2] [kg/m3]	refractive index, [1]	surface tension liquid-gas, [2] [mN/m]	viscosity, [2] [mPa·s]
283.15 K	1028 ± 0.3	1.42303 ± 0.00055	–	26.22
288.15 K	1024 ± 0.3	1.42143 ± 0.00055	–	20.89
293.15 K	1020.1 ± 0.3	1.41983 ± 0.00055	–	16.36
298.15 K	1016.1 ± 0.3	1.41819 ± 0.00055	–	13.97
298.2 K	–	–	33.5 ± 0.3	–
303.15 K	1012.2 ± 0.3	1.41655 ± 0.00055	–	11.68
308.1 K	–	–	32.7 ± 0.3	–
308.15 K	1008.3 ± 0.3	1.41492 ± 0.00055	–	9.888
313.15 K	1004.4 ± 0.3	1.41328 ± 0.00056	–	8.275
318 K	–	–	32.1 ± 0.3	–
318.15 K	1000.5 ± 0.3	1.41156 ± 0.00056	–	7.316
323.15 K	996.8 ± 0.3	1.40991 ± 0.00056	–	6.381
328.15 K	992.9 ± 0.3	1.4082 ± 0.00056	–	5.611
328.4 K	–	–	31.3 ± 0.3	–
333.15 K	989 ± 0.3	1.40649 ± 0.00056	–	4.869
338.15 K	985 ± 0.3	1.40476 ± 0.00056	–	4.427
338.2 K	–	–	30.5 ± 0.3	–
343.15 K	981.1 ± 0.3	1.40312 ± 0.00056	–	3.97
348.15 K	977.2 ± 0.3	1.40138 ± 0.00057	–	3.578
353.15 K	973.1 ± 0.3	1.39963 ± 0.00057	–	3.132
358.15 K	969.1 ± 0.3	–	–	2.943
363.15 K	965.1 ± 0.3	–	–	2.691

CC(=O)[O-].CCn1cc[n+](C)c1 [1-ethyl-3-methylimidazolium acetate]
[1]
Details	refractive index
283.15 K	1.50402 ± 0.00077
288.15 K	1.50267 ± 0.00077
293.15 K	1.50129 ± 0.00077
298.15 K	1.49992 ± 0.00077
303.15 K	1.49854 ± 0.00077
308.15 K	1.49718 ± 0.00077
313.15 K	1.49581 ± 0.00077
318.15 K	1.49447 ± 0.00077
323.15 K	1.49307 ± 0.00077
328.15 K	1.49171 ± 0.00077
333.15 K	1.49035 ± 0.00077
338.15 K	1.48899 ± 0.00077
343.15 K	1.48756 ± 0.00078
348.15 K	1.48613 ± 0.00077
353.15 K	1.48476 ± 0.00077

CC(=O)[O-].CCn1cc[nH+]c1 [1-ethyl-1H-imidazolium acetate]
Details	mass density, [2] [kg/m3]	refractive index, [1]	surface tension liquid-gas, [2] [mN/m]	viscosity, [2] [mPa·s]
283.15 K	1047.2 ± 2.7	1.46347 ± 0.00081	–	7.88
288.15 K	1042.9 ± 2.7	1.4616 ± 0.00082	–	6.669
293.15 K	1038.5 ± 2.6	1.45966 ± 0.00082	–	5.291
298.1 K	–	–	37.8 ± 0.6	–
298.15 K	1034.2 ± 2.6	1.45769 ± 0.00082	–	4.955
303.15 K	1029.9 ± 2.6	1.45576 ± 0.00082	–	4.337
307.8 K	–	–	36.7 ± 0.6	–
308.15 K	1025.6 ± 2.6	1.45379 ± 0.00082	–	3.828
313.15 K	1021.3 ± 2.5	1.45185 ± 0.00082	–	3.225
318.15 K	1017 ± 2.5	1.44985 ± 0.00082	–	3.051
318.5 K	–	–	36.1 ± 0.6	–
323.15 K	1012.7 ± 2.5	1.44791 ± 0.00082	–	2.75
328.15 K	1008.4 ± 2.5	1.44593 ± 0.00082	–	2.492
328.3 K	–	–	35 ± 0.6	–
333.15 K	1004.1 ± 2.5	1.44395 ± 0.00082	–	2.171
338.15 K	999.8 ± 2.4	1.44197 ± 0.00082	–	2.078
339.9 K	–	–	33.7 ± 0.6	–
343.15 K	995.8 ± 2.4	1.44 ± 0.00082	–	1.91
344.2 K	–	–	33.3 ± 0.5	–
348.15 K	991.5 ± 2.4	1.438 ± 0.00082	–	1.762
353.15 K	987.2 ± 2.4	1.43607 ± 0.00082	–	1.547
358.15 K	982.8 ± 2.4	–	–	1.515
363.15 K	978.5 ± 2.3	–	–	1.412

CC(=O)[O-].CCCC[N+]1(C)CCCC1 [1-butyl-1-methylpyrrolidinium acetate]
Details	mass density, [2] [kg/m3]	refractive index, [1]	surface tension liquid-gas, [2] [mN/m]	viscosity, [2] [mPa·s]
283.15 K	–	1.47263 ± 0.00076	–	–
288.15 K	–	1.47144 ± 0.00075	–	–
293.15 K	–	1.47075 ± 0.00074	–	–
298.15 K	1021.2 ± 2.5	1.46998 ± 0.00075	–	106.63
298.3 K	–	–	37.4 ± 0.6	–
303.15 K	1018.1 ± 2.5	1.46868 ± 0.00077	–	79.92
307.9 K	–	–	36.8 ± 0.6	–
308.15 K	1015.1 ± 2.5	1.46736 ± 0.00077	–	61.34
313.15 K	1012.1 ± 2.5	1.46603 ± 0.00077	–	48.45
318 K	–	–	36.4 ± 0.6	–
318.15 K	1009.2 ± 2.5	1.46461 ± 0.00077	–	38.34
323.15 K	1006.2 ± 2.5	1.4632 ± 0.00077	–	31.1
328.15 K	1003.3 ± 2.4	1.46178 ± 0.00077	–	25.61
328.4 K	–	–	36.1 ± 0.6	–
333.15 K	1000.4 ± 2.4	1.46042 ± 0.00077	–	21.64
338.15 K	997.8 ± 2.4	1.459 ± 0.00078	–	18.05
338.5 K	–	–	35.6 ± 0.6	–
343.15 K	994.9 ± 2.4	1.45755 ± 0.00077	–	15.42
343.6 K	–	–	34.4 ± 0.6	–
348.15 K	992 ± 2.4	1.45619 ± 0.00077	–	13.3
353.15 K	989.2 ± 2.4	1.45479 ± 0.00077	–	11.84
358.15 K	986.3 ± 2.4	–	–	10.16
363.15 K	983.5 ± 2.4	–	–	8.983

CC(=O)[O-].CCCCn1cc[n+](C)c1 [1-butyl-3-methylimidazolium acetate]
Details	mass density, [2] [kg/m3]	refractive index, [1]	surface tension liquid-gas, [2] [mN/m]	viscosity, [2] [mPa·s]
283.15 K	1062.2 ± 0.4	1.49269 ± 0.0005	–	1037.2
288.15 K	1058.9 ± 0.4	1.49158 ± 0.00051	–	658.84
293.15 K	1055.5 ± 0.4	1.49021 ± 0.00052	–	429.11
298 K	–	–	36.4 ± 0.3	–
298.15 K	1052.3 ± 0.4	1.4889 ± 0.00054	–	297.39
303.15 K	1049.2 ± 0.4	1.48725 ± 0.00054	–	209.65
307.8 K	–	–	35.9 ± 0.3	–
308.15 K	1046.1 ± 0.3	1.4858 ± 0.00053	–	152.07
313.15 K	1043 ± 0.3	1.48438 ± 0.00053	–	112.23
318 K	–	–	35.5 ± 0.3	–
318.15 K	1040 ± 0.3	1.48297 ± 0.00059	–	86.07
323.15 K	1037 ± 0.3	1.4806 ± 0.00059	–	66.82
328.15 K	1034 ± 0.3	1.47915 ± 0.00053	–	52.84
328.6 K	–	–	35.1 ± 0.3	–
333.15 K	1031 ± 0.3	1.4777 ± 0.00053	–	42.67
338.15 K	1028 ± 0.3	1.47624 ± 0.00054	–	34.66
339 K	–	–	34.7 ± 0.3	–
343.15 K	1025 ± 0.3	1.47463 ± 0.00054	–	28.69
348.15 K	1022.1 ± 0.3	1.47318 ± 0.00053	–	24.04
353.15 K	1019.1 ± 0.3	1.4718 ± 0.00053	–	20.76
358.15 K	1016.2 ± 0.3	–	–	17.45
363.15 K	1013.3 ± 0.3	–	–	15.08
